According to patent publication US20250032484A1, “THERAPEUTIC TARGETS AND AGENTS FOR THE TREATMENT OF POSTTRAUMATIC STRESS DISORDER” (priority 2021, published 2025):

Assays:
[1] = FDA clinical review NDA 209394; cited from earlier work
[2] = system: VA patients with PTSD (PTSD symptoms, PTSD Checklist); experiment: TreeScan nested case-control study of medications associated with PTSD symptom improvement (PTSD Checklist) in VA records; assay type: in vivo, human
Procedure: Study Sample and Data Sources. A nested case-control study was conducted within a previously established retrospective cohort that included all VA users with a clinical diagnosis of PTSD (International Classification of Diseases [ICD]-9:309.81, ICD-10: F43.1x) from Oct. 1, 1999 through Sep. 30, 2019 (Shiner et al. (2021) J Eval Clin Pract.). The data source contains information on services use, clinical diagnoses, filled prescriptions, and patient-reported outcome measures (PROMs) for PTSD using the PTSD Checklist (PCL) for these patients. This study was approved by the Veterans Institutional Review Board of Northern New England.
The goal of the current study was to evaluate any filled medications associated with PTSD symptom improvement, and as such, the analytic sample for this study included only patients with PROMs that were at least 30 days apart. 30 days was selected to allow for medications to be taken for at least one full course (typically 28 days). Patients with PROMs more than 365 days apart were excluded as these are unlikely to provide an accurate assessment of PTSD symptom change between the two time points. For patients who had two overlapping PROM intervals, those closest to 84 days in length were chosen to emulate typical PTSD medication efficacy trials (Watts et al. (2013) J Clin Psychiatry. 74: e541-550). When a patient had two or more overlapping intervals at exactly 84 days, the historically earliest interval was chosen. If patients had multiple non-overlapping intervals, all were included. Patients who met the selection criteria for PTSD in the original cohort and had at least one PROM pair where they started a new medication (defined below) constituted the overall analytic sample for the current study.
PTSD Improvement Cases and No Improvement Controls. In order to maximize the number of patients with available symptomatic measurement, two different versions of a PROM for PTSD were integrated into a single dataset (Shiner et al. (2021) J Eval Clin Pract.). The two PROMs were the PCL versions aligned to the Diagnostic and Statistical Manual of Mental Disorders (DSM), version IV and Version 5 (APA (2000): Diagnostic and Statistical Manual of Mental Disorders. 4th Edition. Text Revision: DSM-IV-TR. Arlington, VA: American Psychiatric Association: APA (2013): Diagnostic and Statistical Manual of Mental Disorders: Fifth Edition (DSM-5). Washington, D.C.: American Psychiatric Association), which will heretofore be called the PCL-IV and the PCL-5 (Blevins et al. (2015) J Trauma Stress. 28:489-498: Weathers et al. (1993) Trauma. Coping. and Adaptation. San Antonio, Texas: International Society for Traumatic Stress Studies, 9th Annual Meeting). […] A validated crosswalk (ICC=0.96) was used to convert all values to PCL-5 scoring (Moshier et al. (Under review): An empirical crosswalk for the PTSD Checklist: Translating DSM-IV to DSM-5). PTSD improvement cases were defined by a clinically meaningful improvement, which was a decrease of 15 points or more between assessment points (Lee et al. (2019) Reliable Change Index and Clinically Significant Margins for the CAPS-5 and PCL-5 among Veterans. Boston, MA: International Society for Traumatic Stress Studies, 35th Annual Meeting). […] Thus, the no PTSD improvement control group was defined as worsening of symptoms or reductions of up to 7 points on the PCL. Improvements between 8 and 14 points were of uncertain clinical significance and were therefore excluded.
Identification and Classification of New Medications. The predictors of interest were initiation of medications for any indication. Candidate agents included those that were started in the interval between PCL pairs and continued for at least a 28-day supply. When patients started multiple medications between a given PCL pair, they contributed information for each of the medications in the tree.

[3] = baseline PCL 38 or higher, PTSD diagnosis within 30 days, without any concurrent evidence-based treatment
[4] = baseline PCL score of 38 or higher and PTSD diagnosis within 30 days
[5] = overall sample without any concurrent evidence-based treatment

glecaprevir
BBB permeability [1]: poor BBB permeability
EXP = Expected Cases ([2]; all patients in the overall sample): 16
EXP = Expected Cases [2, 3]: 4
O:E = Observed Cases over Expected Cases [2, 3]: 3.52
OBS = Observed Cases [2, 3]: 14
EXP = Expected Cases [2, 4]: 14
O:E = Observed Cases over Expected Cases [2, 4]: 2.21
OBS = Observed Cases [2, 4]: 30
OBS = Observed Cases ([2]; case = improved by 15 or more points on PTSD Checklist, all patients in the overall sample): 33
O:E = Observed Cases over Expected Cases ([2]; improvement in PTSD, all patients in the overall sample): 2.09
O:E = Observed Cases over Expected Cases ([2]; improvement in PTSD, all patients in the overall sample, listed as glecaprevir): 2.09
EXP = Expected Cases [2, 5]: 5
O:E = Observed Cases over Expected Cases [2, 5]: 3.09
OBS = Observed Cases [2, 5]: 14
